Test results reported in patent US20220153875A1, “ANTIGEN-BINDING MOLECULE CONTAINING ANTIGEN-BINDING DOMAIN OF WHICH BINDING ACTIVITY TO ANTIGEN IS CHANGED DEPENDING ON MTA, AND LIBRARY FOR OBTAINING SAID ANTIGEN-BINDING DOMAIN” (Chugai Seiyaku Kabushiki Kaisha, priority 2019, published 2022).

What was measured:
SK-MES-1 cells = test: Uptake of extracellular MTA by MTAP-non-deficient cells SK-MES-1 (MTA in culture solution, LC-MS); format: in vitro ADME; conditions: SK-MES-1, MTA added at 100 nM, 0, 4, 24, 48, 72 hours
Protocol: (§1) Since the MTA concentration in the culture solution of MTAP-deficient cells increases over time, it is inferred that there is an intracellular to extracellular MTA transfer pathway. However, in MTAP-non-deficient cells. MTA concentration in the culture solution was very low (FIG. 2), despite the expected presence of ˜1 uM MTA within the cells (FIG. 1). […] Thereafter, an MTA solution was added to the culture solution so as to make the MTA concentration 100 nM, and the cells were cultured for a predetermined time (MTA: Sigma, Catalog No. D5011-100MG).

HT-1376 cells = test: Uptake of extracellular MTA by MTAP-non-deficient cells HT-1376 (MTA in culture solution, LC-MS); format: in vitro ADME; conditions: HT-1376, MTA added at 100 nM, 0, 4, 24, 48, 72 hours
Protocol: as §1

SMILES: CSC[C@H]1O[C@@H](n2cnc3c(N)ncnc32)[C@H](O)[C@@H]1O (stereo in doubt) [MTA, methylthioadenosine]
- MTA concentration in the culture solution (SK-MES-1 cells): decreased over time
- MTA concentration in the culture solution (HT-1376 cells): decreased over time
